According to patent publication US10045983B2, “Heteroaryl pyridone and aza-pyrodine compounds” (Genentech, Inc., priority 2011, dated 2018):

Assay: CD69 Whole Blood Assay (CD69 Hu Blood FACS)
Assay type: cell-based, human
Conditions: Lymphocyte; human whole blood, anti-IgM activated B lymphocytes, FACS; IC70; Table 2 (unit inferred); read-out: CD69 Hu Blood FACS (IC70)
Procedure, shortened: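 Human whole blood stimulated by crosslinking surface IgM with goat F(ab′)2 anti-human IgM; inhibition of CD69 expression on B lymphocytes measured by flow cytometry.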

**Q.** Which IC70 does the source give for `CC(=O)N1CCc2nc(Nc3cc(-c4ccnc(N5CCn6c7c(c(F)c6C5=O)CCCC7)c4CO)cn(C)c3=O)sc2C1` [Example 234, 2-[4-[5-[(5-acetyl-6,7-dihydro-4H-thiazolo[5,4-c]pyridin-2-yl)amino]-1-methyl-6-oxo-3-pyridyl]-3-(hydroxymethyl)-2-pyridyl]-10-fluoro-3,4,6,7,8,9-hexahydropyrazino[1,2-a]indol-1-one] here?
**A.** 183 nM

**Q.** For `C[C@H]1CN(C2COC2)CCN1c1cnc(Nc2cc(-c3ccnc(N4CCn5c(cc6c5CC(C)(C)C6)C4=O)c3CO)cn(C)c2=O)cn1` [Example 235, 3-[3-(hydroxymethyl)-4-[1-methyl-5-[[5-[(2S)-2-methyl-4-(oxetan-3-yl)piperazin-1-yl]pyrazin-2-yl]amino]-6-oxo-3-pyridyl]-2-pyridyl]-7,7-dimethyl-1,2,6,8-tetrahydrocyclopenta[3,4]pyrrolo[3,5-b]pyrazin-4-one], which IC70 is on record?
**A.** 112 nM

**Q.** For `CN1CCC(c2ccc(Nc3cc(-c4ccnc(N5CCn6c(cc7c6CC(C)(C)C7)C5=O)c4CO)cn(C)c3=O)nc2)CC1` [Example 236, 3-[3-(hydroxymethyl)-4-[1-methyl-5-[[5-(1-methyl-4-piperidyl)-2-pyridyl]amino]-6-oxo-3-pyridyl]-2-pyridyl]-7,7-dimethyl-1,2,6,8-tetrahydrocyclopenta[3,4]pyrrolo[3,5-b]pyrazin-4-one], which IC70 is on record?
**A.** 33.6 nM

**Q.** Which IC70 does the source give for `C[C@H]1CN(C2COC2)CCN1c1ccc(Nc2cc(-c3ccnc(N4CCc5c(c(F)c6n5CCCC6)C4=O)c3CO)cn(C)c2=O)nc1` [Example 237, 10-fluoro-2-[3-(hydroxymethyl)-4-[1-methyl-5-[[5-[(2S)-2-methyl-4-(oxetan-3-yl)piperazin-1-yl]-2-pyridyl]amino]-6-oxo-3-pyridyl]-2-pyridyl]-3,4,6,7,8,9-hexahydropyrido[3,4-b]indolizin-1-one] here?
**A.** 46.1 nM

**Q.** With `CN1CC(c2ccc(Nc3cc(-c4ccnc(N5CCn6c(cc7c6CCCC7)C5=O)c4CO)cn(C)c3=O)nc2)C1` [Example 239, 2-[3-(hydroxymethyl)-4-[1-methyl-5-[[5-(1-methylazetidin-3-yl)-2-pyridyl]amino]-6-oxo-3-pyridyl]-2-pyridyl]-3,4,6,7,8,9-hexahydropyrazino[1,2-a]indol-1-one] as the compound, how does the IC70 read?
**A.** 153 nM

**Q.** With `CN1CC(c2ccc(Nc3cc(-c4ccnc(N5CCn6c(cc7c6CC(C)(C)C7)C5=O)c4CO)cn(C)c3=O)nc2)C1` [Example 240, 3-[3-(hydroxymethyl)-4-[1-methyl-5-[[5-(1-methylazetidin-3-yl)-2-pyridyl]amino]-6-oxo-3-pyridyl]-2-pyridyl]-7,7-dimethyl-1,2,6,8-tetrahydrocyclopenta[3,4]pyrrolo[3,5-b]pyrazin-4-one] as the compound, how does the IC70 read?
**A.** 22.9 nM

**Q.** Which IC70 does the source give for `CN1CCn2nc(Nc3cc(-c4ccnc(N5CCc6c(c(F)c7n6CCCC7)C5=O)c4CO)cn(C)c3=O)cc2C1` [Example 241, 10-fluoro-2-[3-(hydroxymethyl)-4-[1-methyl-5-[(5-methyl-6,7-dihydro-4H-pyrazolo[1,5-a]pyrazin-2-yl)amino]-6-oxo-3-pyridyl]-2-pyridyl]-3,4,6,7,8,9-hexahydropyrido[3,4-b]indolizin-1-one] here?
**A.** 190 nM

**Q.** With `Cc1cc(Nc2cc(-c3ccnc(N4CCc5c(cc6n5CCCC6)C4=O)c3CO)cn(C)c2=O)nn1C` [Example 242, 2-[4-[5-[(1,5-dimethylpyrazol-3-yl)amino]-1-methyl-6-oxo-3-pyridyl]-3-(hydroxymethyl)-2-pyridyl]-3,4,6,7,8,9-hexahydropyrido[3,4-b]indolizin-1-one] as the compound, how does the IC70 read?
**A.** 1200 nM

**Q.** For `Cn1cc(-c2ccnc(N3CCn4c(cc5c4CCCC5)C3=O)c2CO)cc(Nc2cn(C3CCN(C4COC4)CC3)cn2)c1=O` [Example 243, 2-[3-(hydroxymethyl)-4-[1-methyl-5-[[1-[1-(oxetan-3-yl)-4-piperidyl]imidazol-4-yl]amino]-6-oxo-3-pyridyl]-2-pyridyl]-3,4,6,7,8,9-hexahydropyrazino[1,2-a]indol-1-one], which IC70 is on record?
**A.** 2800 nM

**Q.** Which IC70 does the source give for `CN1CC(c2ccc(Nc3cc(-c4ccnc(N5CCc6c(cc7n6CCCC7)C5=O)c4CO)cn(C)c3=O)nc2)C1` [Example 244, 2-[3-(hydroxymethyl)-4-[1-methyl-5-[[5-(1-methylazetidin-3-yl)-2-pyridyl]amino]-6-oxo-3-pyridyl]-2-pyridyl]-3,4,6,7,8,9-hexahydropyrido[3,4-b]indolizin-1-one] here?
**A.** 138 nM

**Q.** For `C[C@H]1CN(C2COC2)CCN1c1ccc(Nc2cc(-c3ccnc(-n4ccc5c(cc6n5CCCC6)c4=O)c3CO)cn(C)c2=O)nc1` [Example 245, (S)-2-(3-(Hydroxymethyl)-4-(1-methyl-5-(5-(2-methyl-4-(oxetan-3-yl)piperazin-1-yl)pyridin-2-ylamino)-6-oxo-1,6-dihydropyridin-3-yl)pyridin-2-yl)-6,7,8,9-tetrahydropyrido[3,4-b]indolizin-1(2H)-one], which IC70 is on record?
**A.** 65 nM

**Q.** For `Cc1cc(Nc2cc(-c3ccnc(-n4ccc5c(cc6n5CCCC6)c4=O)c3CO)cn(C)c2=O)nn1C` [Example 246, 2-[4-[5-[(1,5-dimethylpyrazol-3-yl)amino]-1-methyl-6-oxo-3-pyridyl]-3-(hydroxymethyl)-2-pyridyl]-6,7,8,9-tetrahydropyrido[3,4-b]indolizin-1-one], which IC70 is on record?
**A.** 1700 nM

**Q.** With `CC(=O)N1CCn2nc(Nc3cc(-c4ccnc(-n5ncc6c7c(sc6c5=O)CCCC7)c4CO)cn(C)c3=O)cc2C1` [Example 247, 3-[4-[5-[(5-acetyl-6,7-dihydro-4H-pyrazolo[1,5-a]pyrazin-2-yl)amino]-1-methyl-6-oxo-3-pyridyl]-3-(hydroxymethyl)-2-pyridyl]-6,7,8,9-tetrahydrobenzothiopheno[2,3-d]pyridazin-4-one] as the compound, how does the IC70 read?
**A.** 145 nM

**Q.** Which IC70 does the source give for `C[C@@H]1COCCN1C(=O)c1ccc(Nc2cc(-c3ccnc(N4CCn5c(cc6c5CC(C)(C)C6)C4=O)c3CO)nn(C)c2=O)nc1` [Example 248, 3-[3-(hydroxymethyl)-4-[1-methyl-5-[[5-[(3R)-3-methylmorpholine-4-carbonyl]-2-pyridyl]amino]-6-oxo-pyridazin-3-yl]-2-pyridyl]-7,7-dimethyl-1,2,6,8-tetrahydrocyclopenta[3,4]pyrrolo[3,5-b]pyrazin-4-one] here?
**A.** 70.3 nM

**Q.** Which IC70 does the source give for `C[C@@H]1COCCN1C(=O)c1ccc(Nc2cc(-c3ccnc(N4CCn5c(cc6c5CC(C)(C)C6)C4=O)c3CO)cn(C)c2=O)nc1` [Example 249, 3-[3-(hydroxymethyl)-4-[1-methyl-5-[[5-[(3R)-3-methylmorpholine-4-carbonyl]-2-pyridyl]amino]-6-oxo-3-pyridyl]-2-pyridyl]-7,7-dimethyl-1,2,6,8-tetrahydrocyclopenta[3,4]pyrrolo[3,5-b]pyrazin-4-one] here?
**A.** 17.7 nM

**Q.** For `CC1Cn2nc(Nc3cc(-c4ccnc(N5CCn6c(cc7c6CCCC7)C5=O)c4CO)cn(C)c3=O)cc2CN1C` (centres unmarked) [Example 250, 2-[4-[5-[(5,6-dimethyl-6,7-dihydro-4H-pyrazolo[1,5-a]pyrazin-2-yl)amino]-1-methyl-6-oxo-3-pyridyl]-3-(hydroxymethyl)-2-pyridyl]-3,4,6,7,8,9-hexahydropyrazino[1,2-a]indol-1-one], which IC70 is on record?
**A.** 171 nM

**Q.** With `CCn1nc(Nc2cc(-c3ccnc(N4CCn5c(cc6c5CC(C)(C)C6)C4=O)c3CO)cn(C)c2=O)cc1C` [Example 252, 3-[4-[5-[(1-ethyl-5-methyl-pyrazol-3-yl)amino]-1-methyl-6-oxo-3-pyridyl]-3-(hydroxymethyl)-2-pyridyl]-7,7-dimethyl-1,2,6,8-tetrahydrocyclopenta[3,4]pyrrolo[3,5-b]pyrazin-4-one] as the compound, how does the IC70 read?
**A.** 252 nM

**Q.** Which IC70 does the source give for `C[C@H]1CN(C2COC2)CCN1c1ccc(Nc2cc(-c3ccnc(N4CCn5c(cc6c5CC(C)(C)C6)C4=O)c3CO)n[nH]c2=O)nc1` [Example 253, 3-[3-(hydroxymethyl)-4-[5-[[5-[(2S)-2-methyl-4-(oxetan-3-yl)piperazin-1-yl]-2-pyridyl]amino]-6-oxo-1H-pyridazin-3-yl]-2-pyridyl]-7,7-dimethyl-1,2,6,8-tetrahydrocyclopenta[3,4]pyrrolo[3,5-b]pyrazin-4-one] here?
**A.** 16.4 nM

**Q.** Which IC70 does the source give for `CC(=O)N1CCn2nc(Nc3cc(-c4ccnc(N5CCc6c(sc7c6CC(C)(C)C7)C5=O)c4CO)cn(C)c3=O)cc2C1` [Example 254, 3-[4-[5-[(5-acetyl-6,7-dihydro-4H-pyrazolo[1,5-a]pyrazin-2-yl)amino]-1-methyl-6-oxo-3-pyridyl]-3-(hydroxymethyl)-2-pyridyl]-7,7-dimethyl-1,2,6,8-tetrahydrocyclopenta[3,4]thieno[1,3-c]pyridin-4-one] here?
**A.** 37.3 nM

**Q.** Which IC70 does the source give for `CC(=O)N1CCn2nc(Nc3cc(-c4ccnc(N5CCn6c7c(c(F)c6C5=O)CCCC7)c4CO)cn(C)c3=O)cc2C1` [Example 255, 2-[4-[5-[(5-acetyl-6,7-dihydro-4H-pyrazolo[1,5-a]pyrazin-2-yl)amino]-1-methyl-6-oxo-3-pyridyl]-3-(hydroxymethyl)-2-pyridyl]-10-fluoro-3,4,6,7,8,9-hexahydropyrazino[1,2-a]indol-1-one] here?
**A.** 94 nM

**Q.** For `C[C@H]1COCCN1C(=O)c1ccc(Nc2cc(-c3ccnc(N4CCn5c(cc6c5CC(C)(C)C6)C4=O)c3CO)nn(C)c2=O)nc1` [Example 256, 3-[3-(hydroxymethyl)-4-[1-methyl-5-[[5-[(3 S)-3-methylmorpholine-4-carbonyl]-2-pyridyl]amino]-6-oxo-pyridazin-3-yl]-2-pyridyl]-7,7-dimethyl-1,2,6,8-tetrahydrocyclopenta[3,4]pyrrolo[3,5-b]pyrazin-4-one], which IC70 is on record?
**A.** 80 nM

**Q.** For `C[C@H]1COCCN1C(=O)c1ccc(Nc2cc(-c3ccnc(N4CCn5c(cc6c5CC(C)(C)C6)C4=O)c3CO)cn(C)c2=O)nc1` [Example 257, 3-[3-(hydroxymethyl)-4-[1-methyl-5-[[5-[(3 S)-3-methylmorpholine-4-carbonyl]-2-pyridyl]amino]-6-oxo-3-pyridyl]-2-pyridyl]-7,7-dimethyl-1,2,6,8-tetrahydrocyclopenta[3,4]pyrrolo[3,5-b]pyrazin-4-one], which IC70 is on record?
**A.** 21.6 nM

**Q.** Which IC70 does the source give for `Cn1nc(-c2ccnc(-n3ncc4c5c(sc4c3=O)CCCC5)c2CO)cc(Nc2ccc(C(=O)N3CCOCC3)cn2)c1=O` [Example 258, 3-[3-(hydroxymethyl)-4-[1-methyl-5-[[5-(morpholine-4-carbonyl)-2-pyridyl]amino]-6-oxo-pyridazin-3-yl]-2-pyridyl]-6,7,8,9-tetrahydrobenzothiopheno[2,3-d]pyridazin-4-one] here?
**A.** 646 nM
